# Data: patent US20100267561A1, “HERBICIDAL PYRIDAZINONE DERIVATIVES” (priority 2007, published 2010)
# Experiments:
# Type in all cases: in vivo
# [1] = system: bermudagrass (Cynodon dactylon); assay: Test B pre-/postemergence plant response
# Summary of the method: (§1)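 Seeds were sown and sprayed preemergence, while plants at 2 to 18 cm (1- to 4-leaf stage) got postemergence sprays. Compounds were formulated in a non-phytotoxic solvent mixture with surfactant. After 13 to 15 days in a greenhouse, injury was rated visually against untreated controls, 0 (no effect) to 100 (complete control).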
# [2] = system: blackgrass (Alopecurus myosuroides); assay: Test B pre-/postemergence plant response
# Summary of the method: as §1
# corn (Zea mays) = assay: Test B pre-/postemergence plant response
# Summary of the method: as §1
# [3] = system: eastern black (E.B.) nightshade (Solanum ptycanthum); assay: Test B pre-/postemergence plant response; conditions: Preemergence
# Summary of the method: as §1
# [4] = system: giant foxtail (Setaria faberii); assay: Test B pre-/postemergence plant response
# Summary of the method: as §1
# [5] = system: lambsquarters (Chenopodium album); assay: Test B pre-/postemergence plant response
# Summary of the method: as §1
# [6] = system: morningglory (Ipomoea coccinea); assay: Test B pre-/postemergence plant response
# Summary of the method: as §1
# [7] = system: velvetleaf (Abutilon theophrasti); assay: Test B pre-/postemergence plant response
# Summary of the method: as §1
# wild oat (Avena fatua) = assay: Test B pre-/postemergence plant response
# Summary of the method: as §1
# [8] = system: yellow nutsedge (Cyperus esculentus); assay: Test B pre-/postemergence plant response
# Summary of the method: as §1
# [9] = system: canarygrass (Phalaris minor); assay: Test B postemergence plant response; conditions: for Plant response rating, Canarygrass: Postemergence
# Summary of the method: (§2)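 Following treatment of plants 2 to 18 cm high after emergence, pots were held under glass for 13 to 15 days; efficacy was then graded visually, 100 denoting complete control and a dash no test result.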
# [10] = system: chickweed (Stellaria media); assay: Test B postemergence plant response; conditions: for Plant response rating, Chickweed: Postemergence
# Summary of the method: as §2
# [11] = system: windgrass (Apera spica-venti); assay: Test B postemergence plant response; conditions: for Windgrass plant response rating: postemergence, 0-100 scale; for Plant response rating, Windgrass: Postemergence
# Summary of the method: as §2
# [12] = system: winter barley (Hordeum vulgare); assay: Test B postemergence plant response; conditions: for Plant response rating, Barley: Postemergence, scale 0 to 100, 0 no effect, 100 complete control
# Summary of the method: as §2
# [13] = system: barnyardgrass (Echinochloa crus-galli); assay: Test B flooded paddy test plant response
# Summary of the method: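 Compounds were added directly to paddy water over 2-leaf-stage plants in pots flooded 3 cm above soil, water depth maintained. Visual injury scored against controls after 13 to 15 days in greenhouse, 0 (none) to 100 (complete control); dash indicates no result.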
# [14] = 8 g ai/ha, postemergence, 0-100 scale
# [15] = Postemergence, 16 g ai/ha, scale 0 to 100
# [16] = Postemergence, 31 g ai/ha, scale 0 to 100
# [17] = Postemergence, 62 g ai/ha, scale 0 to 100, 0 no effect, 100 complete control
# [18] = Preemergence, 8 g ai/ha, scale 0 to 100 (0 no effect, 100 complete control)
# [19] = Preemergence, 31 g ai/ha, scale 0 to 100 (0 no effect, 100 complete control)
# [20] = Preemergence, 62 g ai/ha, 0 to 100 scale, 0 no effect, 100 complete control
# [21] = Preemergence, 16 g ai/ha, scale 0 to 100
# [22] = 16 g ai/ha, postemergence, 0-100 scale
# [23] = 62 g ai/ha, scale 0 to 100, 0 no effect, 100 complete control
smiles,measurement,setting,value
Cc1nn(C)c(=O)c(-n2nc(-c3ccc(Br)cc3)cc2C)c1O [Compound 81],Bermudagrass plant response rating,[1]; [14],40
same,"Plant response rating, Bermudagrass",[1]; [15],95
same,"Plant response rating, Bermudagrass",[1]; [16],100
same,"Plant response rating, Bermudagrass",[1]; [17],100
same,Bermudagrass plant response rating,[1]; [18],0
same,Bermudagrass plant response rating,"[1]; Preemergence, 16 g ai/ha, scale 0 to 100 (0 no effect, 100 complete control)",50
same,"Plant response rating, Bermudagrass",[1]; [19],100
same,"Plant response rating, Bermudagrass",[1]; [20],100
same,Blackgrass plant response rating,[2]; [14],85
same,"Plant response rating, Blackgrass",[2]; [15],90
same,"Plant response rating, Blackgrass",[2]; [16],98
same,"Plant response rating, Blackgrass",[2]; [17],100
same,Blackgrass plant response rating,[2]; [18],80
same,"Plant response rating, Blackgrass",[2]; [19],100
same,"Plant response rating, Blackgrass",[2]; [20],100
same,Blackgrass plant response rating,[2]; [21],85
same,Corn plant response rating,corn (Zea mays); [14],45
same,"Plant response rating, Corn",corn (Zea mays); [15],100
same,"Plant response rating, Corn",corn (Zea mays); [16],100
same,"Plant response rating, Corn",corn (Zea mays); [17],100
same,Corn plant response rating,corn (Zea mays); [18],65
same,"Plant response rating, Corn",corn (Zea mays); [19],98
same,"Plant response rating, Corn",corn (Zea mays); [20],100
same,Corn plant response rating,corn (Zea mays); [21],70
same,"Nightshade, E. B. plant response rating","[3]; 8 g ai/ha, scale 0 to 100 (0 no effect, 100 complete control)",0
same,"Plant response rating, Nightshade, E. B.","[3]; 31 g ai/ha, scale 0 to 100 (0 no effect, 100 complete control)",0
same,"Plant response rating, Nightshade, E. B.","[3]; 62 g ai/ha, 0 to 100 scale, 0 no effect, 100 complete control",50
same,"Nightshade, E. B. plant response rating","[3]; 16 g ai/ha, scale 0 to 100",0
same,"Foxtail, Giant plant response rating",[4]; [14],80
same,"Plant response rating, Foxtail, Giant",[4]; [15],85
same,"Plant response rating, Foxtail, Giant",[4]; [16],98
same,"Plant response rating, Foxtail, Giant",[4]; [17],100
same,"Foxtail, Giant plant response rating",[4]; [18],80
same,"Plant response rating, Foxtail, Giant",[4]; [19],100
same,"Plant response rating, Foxtail, Giant",[4]; [20],100
same,"Foxtail, Giant plant response rating",[4]; [21],100
same,Lambsquarters plant response rating,[5]; [14],0
same,Lambsquarters plant response rating,[5]; [22],0
same,"Plant response rating, Lambsquarters",[5]; [16],0
same,"Plant response rating, Lambsquarters",[5]; [17],0
same,Lambsquarters plant response rating,[5]; [18],0
same,"Plant response rating, Lambsquarters",[5]; [19],0
same,"Plant response rating, Lambsquarters",[5]; [20],0
same,Lambsquarters plant response rating,[5]; [21],0
same,Morningglory plant response rating,[6]; [14],0
same,Morningglory plant response rating,[6]; [22],0
same,"Plant response rating, Morningglory",[6]; [16],0
same,"Plant response rating, Morningglory",[6]; [17],0
same,Morningglory plant response rating,[6]; [18],0
same,"Plant response rating, Morningglory",[6]; [19],0
same,"Plant response rating, Morningglory",[6]; [20],100
same,Morningglory plant response rating,[6]; [21],0
same,Velvetleaf plant response rating,[7]; [14],0
same,Velvetleaf plant response rating,[7]; [22],0
same,"Plant response rating, Velvetleaf",[7]; [16],0
same,"Plant response rating, Velvetleaf",[7]; [17],0
same,Velvetleaf plant response rating,[7]; [18],0
same,"Plant response rating, Velvetleaf",[7]; [19],0
same,"Plant response rating, Velvetleaf",[7]; [20],0
same,Velvetleaf plant response rating,[7]; [21],0
same,"Oat, Wild plant response rating",wild oat (Avena fatua); [14],80
same,"Oat, Wild plant response rating",wild oat (Avena fatua); [22],95
same,"Plant response rating, Oat, Wild",wild oat (Avena fatua); [16],100
same,"Plant response rating, Oat, Wild",wild oat (Avena fatua); [17],100
same,"Oat, Wild plant response rating",wild oat (Avena fatua); [18],45
same,"Plant response rating, Oat, Wild",wild oat (Avena fatua); [19],70
same,"Plant response rating, Oat, Wild",wild oat (Avena fatua); [20],85
same,"Oat, Wild plant response rating",wild oat (Avena fatua); [21],60
same,"Nutsedge, Yellow plant response rating",[8]; [14],0
same,"Nutsedge, Yellow plant response rating",[8]; [22],0
same,"Plant response rating, Nutsedge, Yellow",[8]; [16],0
same,"Plant response rating, Nutsedge, Yellow",[8]; [17],0
same,"Nutsedge, Yellow plant response rating",[8]; [18],0
same,"Plant response rating, Nutsedge, Yellow",[8]; [19],0
same,"Plant response rating, Nutsedge, Yellow",[8]; [20],0
same,"Nutsedge, Yellow plant response rating",[8]; [21],0
same,Canarygrass plant response rating,[9]; [14],65
same,"Plant response rating, Canarygrass","[9]; 31 g ai/ha, scale 0 to 100",98
same,"Plant response rating, Canarygrass",[9]; [23],100
same,Chickweed plant response rating,[10]; [14],0
same,"Plant response rating, Chickweed","[10]; 16 g ai/ha, scale 0 to 100",0
same,"Plant response rating, Chickweed","[10]; 31 g ai/ha, scale 0 to 100",0
same,"Plant response rating, Chickweed",[10]; [23],0
same,Windgrass plant response rating,[11]; 8 g ai/ha,45
same,Windgrass plant response rating,[11]; 16 g ai/ha,80
same,"Plant response rating, Windgrass","[11]; 31 g ai/ha, scale 0 to 100",85
same,"Plant response rating, Windgrass",[11]; [23],95
same,Barley plant response rating,[12]; [14],10
same,"Plant response rating, Barley",[12]; 16 g ai/ha,15
same,"Plant response rating, Barley",[12]; 31 g ai/ha,70
same,"Plant response rating, Barley",[12]; 62 g ai/ha,98
same,"Plant response rating, Barnyardgrass","[13]; Flood (flooded paddy test), 62 g ai/ha, scale 0 to 100, 0 no effect, 100 complete control",0
same,"Plant response rating, Barnyardgrass","[13]; Flood (flooded paddy test), 125 g ai/ha, scale 0 to 100, 0 no effect, 100 complete control",0
same,"Plant response rating, Barnyardgrass","[13]; Flood (flooded paddy test), 250 g ai/ha, scale 0 to 100, 0 no effect, 100 complete control",0
same,"Plant response rating, Barnyardgrass","[13]; Flood, 31 g ai/ha, scale 0 to 100",0
